Measurements published in the RepoRT retention time repository.
Counter-ions that a name gives are not always drawn.

Assay: RP, Phenomenex Kinetex C18, 100 × 2.1 mm, 1.7 µm, 40 °C, 0.5 mL/min, estimated dead time 0.44 min; A: water + 1 mM ammonium fluoride; B: acetonitrile; gradient (min/%B) 0/10 2/10 22/100 27/100 27.1/10
Details: stereoisomer not certain

Row | Structure (SMILES) | LC retention time
1 | C[C@H](CCC(=O)O)[C@H]1CC[C@H]2[C@@H]3CC[C@@H]4CC(=O)CC[C@]4(C)[C@H]3CC[C@]12C [3-Oxo-5beta-cholanoic Acid] | 13.4 min
2 | CC(CCCC(C)C1CCC2C3C(O)CC4=CC(=O)CCC4(C)C3CCC12C)C(=O)O (configuration not stated) [7-Hydroxy-3-oxo-Cholest-4-en-26-oic Acid] | 12 min
3 | CC(CCC(=O)O)C1CCC2C3C(O)CC4CC(O)CCC4(C)C3CC(=O)C12C (configuration not stated) [12-Ketochenodeoxycholic acid] | 7.88 min
4 | CC(CCCC(C)C1CCC2C3CCC4=CC(=O)C=CC4(C)C3CCC12C)C(=O)O [(25S)-d1,4-Dafachronic acid] | 14.5 min
5 | CC(CCCC(C)C1CCC2C3=CCC4CC(=O)C=CC4(C)C3CCC21C)C(=O)O [(25S)-d1,7-Dafachronic acid] | 14.4 min
6 | CC(CCCC(C)C1CCC2C3CCC4CC(=O)C=CC4(C)C3CCC12C)C(=O)O [(25S)-d1-Dafachronic acid] | 15.9 min
7 | CC(CCCC(C)C1CCC2=C3C=CC4=CC(=O)CCC4(C)C3CCC21C)C(=O)O [(25S)-d4,6,8(14)-Dafachronic acid] | 14.3 min
8 | CC(CCCC(C)C1CCC2=C3CCC4CC(=O)CCC4(C)C3CCC21C)C(=O)O [(25S)-d8(14)-Dafachronic acid] | 15.9 min
9 | CCCCCCCCCCCCCCCCCCCC(=O)O [Arachidic acid] | 20.3 min
10 | CCCCCCCCCC(=O)O [Decanoic acid] | 10.3 min
11 | CC(CCC(=O)O)C1CCC2C3C(=O)CC4CC(=O)CCC4(C)C3CC(=O)C12C (configuration not stated) [Dehydrocholic acid] | 7.14 min
12 | CC(CCC(=O)NCC(=O)O)C1CCC2C3C(O)CC4CC(O)CCC4(C)C3CC(O)C12C (configuration not stated) [Glycocholic acid] | 6.87 min
13 | CC(CCC(=O)NCC(=O)O)C1CCC2C3C(=O)CC4CC(=O)CCC4(C)C3CC(=O)C12C (configuration not stated) [Glycodehydrocholic acid] | 5.21 min
14 | CC(CCC(=O)NCC(=O)O)C1CCC2C3CCC4CC(O)CCC4(C)C3CC(O)C12C (configuration not stated) [Glycodeoxycholic acid] | 7.98 min
15 | CC(CCC(=O)NCC(=O)O)C1CCC2C3CC(O)C4CC(O)CCC4(C)C3CCC12C (configuration not stated) [Glycohyodeoxycholic Acid] | 6.88 min
16 | CC(CCC(=O)NCC(=O)O)C1CCC2C3CCC4CC(O)CCC4(C)C3CCC12C (configuration not stated) [Glycolithocholic Acid sodium salt] | 9.22 min
17 | CC(CCC(=O)O)C1CCC2C3CCC4CC(O)CCC4(C)C3CCC12C (configuration not stated) [Lithocholic acid] | 13.1 min
18 | CC(CC(=O)O)C1CCC2C3CCC4CC(O)CCC4(C)C3CC(O)C12C (configuration not stated) [Nor-Desoxycholic Acid] | 9.58 min
19 | CC(CCC(=O)O)C1CCC2C3C(=O)CC4CC(O)CCC4(C)C3CCC12C (configuration not stated) [Nutriacholic Acid] | 9.67 min
20 | CC(CCC(=O)NCCS(=O)(=O)O)C1CCC2C3C(O)CC4CC(O)CCC4(C)C3CC(O)C12C (configuration not stated) [Taurocholic acid] | 6.97 min
21 | CC(CCC(=O)NCCS(=O)(=O)O)C1CCC2C3CCC4CC(O)CCC4(C)C3CC(O)C12C (configuration not stated) [Taurodeoxycholic acid] | 8.04 min
22 | CC(CCC(=O)NCCS(=O)(=O)O)C1CCC2C3CCC4CC(O)CCC4(C)C3CCC12C (configuration not stated) [Taurolithocholic acid] | 9.12 min
